Tests used:
[1] = Inhibitory activity against aggrecanase was determined
[2] = molecular target: Matrix metalloproteinase-9 (Homo sapiens, UniProt P14780); assay: Binding affinity for human gelatinase B (MMP-9)
[3] = molecular target: T1, Interstitial collagenase (Homo sapiens, UniProt P03956); assay: Binding affinity for interstitial collagenase (MMP-1)
T1 sequence (P03956 whole entry): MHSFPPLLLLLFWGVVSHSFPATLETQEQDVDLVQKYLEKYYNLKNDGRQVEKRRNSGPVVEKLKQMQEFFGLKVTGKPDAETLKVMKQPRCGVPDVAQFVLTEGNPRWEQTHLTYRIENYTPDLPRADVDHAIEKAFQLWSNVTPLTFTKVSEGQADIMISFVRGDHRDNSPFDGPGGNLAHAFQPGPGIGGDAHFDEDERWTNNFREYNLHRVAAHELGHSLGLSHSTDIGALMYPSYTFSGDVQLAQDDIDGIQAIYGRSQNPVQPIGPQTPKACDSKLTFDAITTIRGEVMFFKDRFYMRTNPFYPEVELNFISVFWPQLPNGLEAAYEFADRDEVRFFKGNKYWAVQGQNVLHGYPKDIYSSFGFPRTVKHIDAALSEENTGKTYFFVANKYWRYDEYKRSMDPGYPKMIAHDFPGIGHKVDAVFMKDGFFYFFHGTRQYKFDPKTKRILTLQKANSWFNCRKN

[4] = molecular target: 72 kDa type IV collagenase (Homo sapiens, UniProt P08253); assay: Binding affinity for human gelatinase A (MMP-2)
Sequence of 72 kDa type IV collagenase (P08253 whole entry): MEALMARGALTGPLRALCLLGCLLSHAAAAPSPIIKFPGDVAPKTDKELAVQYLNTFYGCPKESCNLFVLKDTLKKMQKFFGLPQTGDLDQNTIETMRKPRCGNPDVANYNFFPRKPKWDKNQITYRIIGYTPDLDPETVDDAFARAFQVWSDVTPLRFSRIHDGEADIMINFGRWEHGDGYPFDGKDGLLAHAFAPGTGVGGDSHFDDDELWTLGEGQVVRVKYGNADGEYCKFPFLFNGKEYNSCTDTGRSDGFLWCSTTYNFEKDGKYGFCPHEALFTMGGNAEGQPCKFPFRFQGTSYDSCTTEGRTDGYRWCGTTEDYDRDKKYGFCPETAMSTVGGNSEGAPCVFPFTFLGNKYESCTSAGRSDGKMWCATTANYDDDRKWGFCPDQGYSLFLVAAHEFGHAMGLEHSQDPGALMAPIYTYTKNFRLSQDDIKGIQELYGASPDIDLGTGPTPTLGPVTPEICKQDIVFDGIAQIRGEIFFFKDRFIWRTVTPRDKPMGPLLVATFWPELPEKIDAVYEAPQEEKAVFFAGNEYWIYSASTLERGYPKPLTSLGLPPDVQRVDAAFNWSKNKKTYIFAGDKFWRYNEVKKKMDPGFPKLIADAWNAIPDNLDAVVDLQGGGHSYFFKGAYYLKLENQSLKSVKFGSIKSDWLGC

Sequence of Matrix metalloproteinase-9 (P14780 whole entry): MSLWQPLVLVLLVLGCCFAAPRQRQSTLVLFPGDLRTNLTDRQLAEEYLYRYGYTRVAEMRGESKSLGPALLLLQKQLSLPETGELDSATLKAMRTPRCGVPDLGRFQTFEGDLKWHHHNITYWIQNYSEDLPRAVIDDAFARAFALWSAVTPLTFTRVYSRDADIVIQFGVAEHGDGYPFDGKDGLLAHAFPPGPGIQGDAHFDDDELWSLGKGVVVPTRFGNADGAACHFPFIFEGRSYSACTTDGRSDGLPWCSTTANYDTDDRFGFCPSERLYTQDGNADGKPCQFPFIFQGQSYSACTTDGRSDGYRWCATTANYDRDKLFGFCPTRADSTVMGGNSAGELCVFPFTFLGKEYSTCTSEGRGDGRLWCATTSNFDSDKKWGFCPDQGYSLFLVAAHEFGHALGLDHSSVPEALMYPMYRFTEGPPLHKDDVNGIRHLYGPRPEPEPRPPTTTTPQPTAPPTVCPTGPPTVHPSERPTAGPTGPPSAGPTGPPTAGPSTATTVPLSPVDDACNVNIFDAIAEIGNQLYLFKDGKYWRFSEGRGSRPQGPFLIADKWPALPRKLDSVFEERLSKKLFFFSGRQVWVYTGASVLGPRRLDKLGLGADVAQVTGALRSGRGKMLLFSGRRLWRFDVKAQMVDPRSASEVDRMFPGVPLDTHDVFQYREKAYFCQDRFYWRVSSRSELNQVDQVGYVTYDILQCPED

SMILES | IC50 [1] [nM] | Ki [2] [nM] | Ki [3] [nM] | Ki [4] [nM]
CC(C)c1cccc(-c2ccc(C[C@H](CC(=O)NO)C(=O)N[C@H]3c4ccccc4C[C@H]3O)cc2)c1 | 216 | – | – | –
O=C(C[C@@H](Cc1ccc(-c2ccccc2-c2nn[nH]n2)cc1)C(=O)N[C@H]1c2ccccc2C[C@H]1O)NO | 239 | 277 | > 5000 | 1130
Cc1ccccc1-c1ccc(C[C@H](CC(=O)NO)C(=O)N[C@H]2c3ccccc3C[C@H]2O)cc1 | 11.6 | 4.2 | 4110 | < 2.8
O=C(C[C@@H](Cc1ccc(-c2ccccc2)cc1)C(=O)N[C@H]1c2ccccc2C[C@H]1O)NO | 9.8 | 5.4 | > 5000 | < 1
O=C(C[C@@H](Cc1cccc(O)c1)C(=O)N[C@H]1c2ccccc2C[C@H]1O)NO | 64 | – | – | –
O=C(C[C@@H](Cc1ccc(-c2ccccc2Cl)cc1)C(=O)N[C@H]1c2ccccc2C[C@H]1O)NO | 32 | 150 | > 5000 | 27
O=C(C[C@@H](Cc1ccc(-c2ccccc2CO)cc1)C(=O)N[C@H]1c2ccccc2C[C@H]1O)NO | 144 | > 2000 | > 5000 | 500
Cc1cccc(-c2ccc(C[C@H](CC(=O)NO)C(=O)N[C@H]3c4ccccc4C[C@H]3O)cc2)c1 | 11.5 | 1080 | > 5000 | 39

Now those with a lower IC50 [1], led by results:

IC50 [1] [nM] | Ki [2] [nM] | Ki [3] [nM] | Ki [4] [nM] | SMILES
5.5 | – | – | – | O=C(C[C@@H](Cc1ccc(-c2cccc([N+](=O)[O-])c2)cc1)C(=O)N[C@H]1c2ccccc2C[C@H]1O)NO
3.7 | 2.8 | > 5000 | < 2.8 | COc1cccc(-c2ccc(C[C@H](CC(=O)NO)C(=O)N[C@H]3c4ccccc4C[C@H]3O)cc2)c1
3.4 | – | – | – | COc1ccccc1-c1ccc(C[C@H](CC(=O)NO)C(=O)N[C@H]2c3ccccc3C[C@H]2O)cc1
2 | – | – | – | O=C(C[C@@H](Cc1ccc(-c2cccc(F)c2)cc1)C(=O)N[C@H]1c2ccccc2C[C@H]1O)NO
1.5 | 309 | 12800 | 43 | O=C(C[C@@H](Cc1ccc(-c2ccc3c(c2)OCO3)cc1)C(=O)N[C@H]1c2ccccc2C[C@H]1O)NO
1.5 | – | – | – | CS(=O)(=O)Nc1cccc(-c2ccc(C[C@H](CC(=O)NO)C(=O)N[C@H]3c4ccccc4C[C@H]3O)cc2)c1

Source: ChEMBL document CHEMBL1135085, “Potent P1' biphenylmethyl substituted aggrecanase inhibitors” (Bioorg Med Chem Lett, 2002)
